From patent EP4660196A1, “CRYSTAL FORM OF COMPOUND, PREPARATION METHOD THEREFOR AND USE THEREOF” (Felicamed Biotechnology Co., Ltd., priority 2023, dated 2024)
Where “and” joins values, the source holds several entries; their conditions need not be identical. Identical values can stand only once. Like-named read-outs stand apart in the source and are kept apart here.

Key:
[1] = Urine and fecal excretion after single intragastric administration; settings: dog, po, 6 mg/kg
Procedure: The preparations were freshly prepared on the day of administration, and sampled for determination of preparation concentration.
Six Beagle dogs (half male and half female) were fasted overnight in metabolic cages the day before the experiment. Before administration, urine and feces of each animal were collected as baseline (0 h) samples. On the day of administration, Beagle dogs received single intragastric administration of the drug at 6 mg/kg. Four hours after administration, the animals resumed feeding and had free access to water during the experiment.
After urine collection is completed, the volume was measured and recorded. Part of the collected urine was taken, methanol was added to dilute the urine in a urine-to-methanol volume ratio of 4: 1 (v/v). After vortex mixing, the mixture was divided into 2 portions. After fecal samples at different time periods were collected, the food residues on the surface were removed and the feces were weighed. […] After the last sampling of the urine and feces excretion experimental group was completed, the metabolic cages were rinsed with 2000 mL of water: ethanol (1: 1, v: v) and the rinse solution of each cage was collected. After the rinse solution was thoroughly shaken, 1 mL was immediately taken, placed into a 1.5 mL EP tube, and stored in a -90°C to 60°C refrigerator together with the urine and feces homogenate until sample analysis.
The drug concentration in the excretion samples of the animal in each group at different time periods was detected by LC-MS/MS, and an excretion rate and a cumulative excretion rate in each time period were calculated.

in vivo = assay: in vivo; design: species or system Sprague-Dawely rats; settings: rat, po
From the text: Sprague-Dawely rats (SPF grade) used in this experiment were purchased from Zhejiang Charles River Experimental Animal Technology Co., Ltd. with the production license No. SCXK (Zhe) 2019-0001 and the animal qualification certificate No. 20220107Aazz0619000738 and 20220107Aazz0619000691. A body weight range of males was 206.6 g to 234.5 g, and a body weight range of females was 188.4 g to 205.9 g.
In this experiment, all animals were randomly divided into 5 groups (5 animals/sex/group), received the drug at 97 mg/kg, 174 mg/kg, 312 mg/kg, 559 mg/kg, and 1000 mg/kg, respectively, and received signal intragastric administration orally. […] All animals received administration according to their latest weighed body weight. The drug was stirred for at least 10 min before administration, and continuously stirred during administration until the administration of the sample at this concentration was completed. […]
All animals underwent a comprehensive physical examination by a veterinarian before administration. […] All surviving animals were weighed once on the day of random grouping (Day-1), Day 1 (before administration), Day 3, Day 5, Day 7, and Day 8; and their 24±1-hour food consumption was measured once on Day 1 (Day 1 to Day 2), Day 2 (Day 2 to Day 3), and Day 6 (Day 6 to Day 7). […]

[2] = Pharmacokinetics of free crystal form A in Beagle dogs (i.v. and intragastric); assay type: in vivo; settings: dog
Procedure: Preparations were administered to the group C on the second day to the seventh day were prepared in the same way as that on the first day.
All the animals in this experiment were randomly divided into 4 groups (3 dogs/sex/group). The animals in the group A, the group B, and the group D were fasted before administration, and the animals in the group C were fasted before the first administration and the last administration. All the animals were fasted for at least 12 h before administration, and food was resumed 4 h after administration. All the animals had free access to water and food during the experiment. Table 25 Animal groups and administration methods
The animals in the group A were intravenously injected with the drug at 2 mg/kg, and blood samples were collected from the jugular vein before and 0.033 h, 0.083 h, 0.25 h, 0.5 h, 1 h, 2 h, 4 h, 8 h, 12 h, and 24 h after administration. The animals in the group B and the group D received single intragastric administration of the drugs at 2 mg/kg and 20 mg/kg, respectively, and blood samples were collected from the jugular vein before and 0.083 h, 0.25 h, 0.5 h, 1 h, 2 h, 4 h, 8 h, 12 h, and 24 h after administration. […] Blood samples were collected from the jugular vein before the first administration and the seventh administration and 0.083 h, 0.25 h, 0.5 h, 1 h, 2 h, 4 h, 8 h, 12 h, and 24 h after administration. Blood samples were collected from the jugular vein before administration and 0.5 h after administration from the second administration to the sixth administration. The sample collected before the second administration was the sample collected 24 h after the first administration.
The blood samples from the animals were collected through the jugular vein, with a blood sample volume of 0.5 mL/time. All collected whole blood samples were placed in centrifuge tubes containing ethylene diamine tetraacetic acid potassium salt (EDTA-K2), and the centrifuge tubes were turned upside down to allow the anticoagulant and blood to be fully mixed. All the samples were placed on wet ice before centrifugation and centrifuged at 1524 g for 10 min to separate plasma. The plasma samples were transferred to new centrifuge tubes and stored at -90°C to […] until analysis.
The drug concentration in the plasma of each Beagle dog was determined by liquid chromatography with tandem mass spectrometry (LC-MS/MS). The obtained plasma concentration data was analyzed by using the pharmacokinetic processing software WinNonlin 8.0 with a non-compartmental model to calculate relevant pharmacokinetic parameters.

[3] = DVS
Procedure: DVS isotherms were collected on an SMS (Surface Measurement Systems) DVS Intrinsic. Relative humidity at 25°C was calibrated using the deliquescence points of LiCl, Mg(NO3)2, and KCl. Table 9 DVS testing parameters

[4] = assay type: physicochemical; settings: 37°C; for S: solubility: calculated as free form; for FC: crystal transfer: XRPD of solid; for pH: pH of filtrate

Compound: CC[S@@](=N)(=O)C[C@H]1CC[C@H](N(C)c2ncnc3[nH]ccc23)CC1 [Free crystal form A]
- dose excreted at 120 h ([1]; cage rinse solution): 4.87 ± 3.09%
- dose excreted at 120 h ([1]; feces): 3.48 ± 0.663%
- dose excreted at 120 h ([1]; urine and feces): 47.3 ± 9.62%
- dose excreted at 120 h ([1]; urine, feces, cage rinse): 52.2%
- dose excreted at 120 h ([1]; urine): 43.8 ± 9.97%
- MTD at 168 h (in vivo): 174 mg/kg
- AUC0-t of the unit dose ([2]; in vivo): 4380 ng·kg·h/mL/mg and 4990 ng·kg·h/mL/mg and 5030 ng·kg·h/mL/mg
- clinical observation ([2]; in vivo): no obvious abnormalities were found
- male-to-female ratio of AUC0-t ([2]; in vivo): 1.10 and 0.716 and 0.877
- male-to-female ratio of Cmax ([2]; in vivo): 1.36 and 0.810 and 0.894
- ratio of AUC0-t of the seventh administration and the first administration ([2]; in vivo): 0.887
- ratio of Cmax of the seventh administration and the first administration ([2]; in vivo): 0.964
- unit dose AUC0-t ratio of 20 mg/kg and 2 mg/kg ([2]; in vivo): 1.15
- unit dose Cmax ([2]; in vivo): 675 kg·ng/mL/mg and 785 kg·ng/mL/mg and 665 kg·ng/mL/mg
- unit dose Cmax ratio of 20 mg/kg and 2 mg/kg ([2]; in vivo): 0.985
- steady-state volume of distribution (Vdss) relative to total body fluid volume ([2]; in vivo, iv, 2 mg/kg): 1.57 times
- total clearance (CL) relative to liver blood flow ([2]; in vivo, iv, 2 mg/kg): 0.110 times
- Tmax ([2]; plasma, po, read-out: average time to peak drug concentration): 0.792 to 1.33 h
- Hygroscopic weight gain (wt%) at 25°C/80% RH [3]: 0.39 wt%
- Hygroscopic weight gain (wt%) at 25°C/80% RH ([3]; listed as free crystal form A): 0.39 wt%
- S: solubility ([4]; FaSSIF, 1 h, 60 min): 2200 µg/mL
- S: solubility ([4]; FaSSIF, 2 h, 120 min): 2200 µg/mL
- S: solubility ([4]; FaSSIF, 4 h, 240 min): 2300 µg/mL
- S: solubility ([4]; FaSSIF, 24 h, 1440 min): 2400 µg/mL
- S: solubility ([4]; H2O, 1 h, 60 min): 2100 µg/mL
- S: solubility ([4]; H2O, 2 h, 120 min): 2100 µg/mL
- S: solubility ([4]; H2O, 4 h, 240 min): 2200 µg/mL
- S: solubility ([4]; H2O, 24 h, 1440 min): 2400 µg/mL
- FC: crystal transfer ([4]; FaSSIF, 1 h): No
- FC: crystal transfer ([4]; FaSSIF, 2 h): No
- FC: crystal transfer ([4]; FaSSIF, 4 h): No
- FC: crystal transfer ([4]; FaSSIF, 24 h): No
- FC: crystal transfer ([4]; FeSSIF, 1 h): No
- FC: crystal transfer ([4]; FeSSIF, 2 h): No
- FC: crystal transfer ([4]; FeSSIF, 4 h): No
- FC: crystal transfer ([4]; FeSSIF, 24 h): No
- FC: crystal transfer ([4]; H2O, 1 h): No
- FC: crystal transfer ([4]; H2O, 2 h): No
- FC: crystal transfer ([4]; H2O, 4 h): No
- FC: crystal transfer ([4]; H2O, 24 h): No
- FC: crystal transfer ([4]; SGF, 1 h): No
- FC: crystal transfer ([4]; SGF, 2 h): No
- FC: crystal transfer ([4]; SGF, 4 h): No
- FC: crystal transfer ([4]; SGF, 24 h): No
- pH ([4]; FaSSIF, 1 h): 6.6
- pH ([4]; FaSSIF, 2 h): 6.6
- pH ([4]; FaSSIF, 4 h): 6.6
- pH ([4]; FaSSIF, 24 h): 6.6
- pH ([4]; FeSSIF, 1 h): 5.3
- pH ([4]; FeSSIF, 2 h): 5.3
- pH ([4]; FeSSIF, 4 h): 5.3
- pH ([4]; FeSSIF, 24 h): 5.3
- pH ([4]; H2O, 1 h): 6.7
- pH ([4]; H2O, 2 h): 6.6
- pH ([4]; H2O, 4 h): 6.7
- pH ([4]; H2O, 24 h): 7.3
- pH ([4]; SGF, 1 h): 5.1
- pH ([4]; SGF, 2 h): 5.2
- pH ([4]; SGF, 4 h): 5.2
- pH ([4]; SGF, 24 h): 5.2
